# Laboratory results as given in patent publication US8557844B2, “Substrate reduction therapy” (The Chancellor, Masters and Scholars of the University of …, priority 2007, dated 2013).
# Entries after “also recorded” stand apart in the source; their conditions may differ.
# Experiments:
# [1] = tested on: NPC1 null (CT43) CHO cells; experiment: Total GSL level (HPLC) in NPC1 null CHO cells; assay type: cell-based; details: 50 μM NB-DGJ, 5 days, FIG. 3A
# Description: (§1) It has been shown that Niemann-Pick C1 cells (NPC1 null CHO cells) and normal cells treated with amphiphiles to induce an NPC1 phenotype, in addition to free cholesterol storage, have glycosphingolipid (GSL) storage (FIG. 3A) and abnormalities in endocytic transport (FIG. 3B) including defective early to late endosomal transport and late endosomal to Golgi transport (J Biol Chem 2004; 279(25):26167-75). NPC1 cells have a 2-fold increase in total GSLs (HPLC quantified) compared to controls (FIG. 3A). […] This correction in GSL levels is associated with a correction in endocytic transport defects (J Biol Chem 2004; 279(25):26167-75). Fluorescently labelled lactosylceramide (BODIPY-LacCer), a GSL normally transported through the endocytic system to the Golgi (FIG. 3Bi), is misdirected to the LE/Lys system in untreated NPC1 cells (FIG. 3Bii), indicative of GSL storage (J Biol Chem 2004; 279(25):26167-75; J Biol Chem 2003; 278(23):20961-70; Am J Hum Genet 2001; 68(6):1361-72).
# [2] = tested on: NPC1 null (CT43) CHO cells; experiment: BODIPY-LacCer pulse/chase endocytic transport in NPC1 null CHO cells; assay type: cell-based; details: 50 μM NB-DGJ, 5 days, 45 min pulse, 1 h chase, FIG. 3B
# Description: as §1
# SLOS (DHCR7−/−) MEFs = assay type: cell-based, murine; details: 50 μM NB-DGJ, 5 days, medium with LPDS
# [3] = tested on: DHCR7−/− mouse embryonic fibroblasts; experiment: Nile red staining of ER neutral lipids in DHCR7−/− MEFs; assay type: cell-based; design: dose or concentration left out as unconfirmed; details: 5 days
# Protocol: DHCR7−/− mouse embryonic fibroblasts were grown under the conditions indicated in FIG. 9 (FCS=foetal calf serum, LPDS=lipoprotein deficient serum) for 5 days prior to staining of neutral lipids with Nile red. Under wild-type conditions (growth in FCS) Nile red stains the endoplasmic reticulum (ER) as expected. Inducing DHCR7−/− cells into a Smith-Lemli-Opitz phenotype by growth in LPDS leads to a depletion in ER neutral lipids and an elevation in punctate staining indicative of a block in transport to the ER. […] N=2.
# [4] = cited from earlier work
# [5] = tested on: total ganglioside and GM1 content in cerebrum-brainstem; details: cited from earlier work
# GSL biosynthesis = details: cited from earlier work
# [6] = cited from earlier work; remark: listed apart in the source
# NPC1 cells = details: depletion of stored GSLs with NB-DGJ; cited from earlier work
structure (smiles),measurement,setting,value
"CCCCN1C[C@H](O)[C@@H](O)[C@@H](O)[C@H]1CO [NB-DGJ, N-butyldeoxygalactonojirimycin]",GSL storage,[1],reduction in GSL storage
same,BODIPY-LacCer endocytic transport,[2],correction in abnormal BODIPY-LacCer endocytic transport; also recorded: correction in BODIPY-LacCer transport to the Golgi
same,endogenous ganglioside GM1 / GSL trafficking from LE/Lys to Golgi,SLOS (DHCR7−/−) MEFs,corrected altered endogenous ganglioside GM1 trafficking
same,ER neutral lipid levels (Nile red),[3],restoration of normal levels of neutral lipids at the ER
same,neurological side effects,[4]; adult mice,not to cause neurological side effects
same,CNS penetration,"[4]; mouse, in vivo",penetrate the CNS
same,effects on behaviour or CNS development,"[4]; mouse, in vivo",without significant effects on behaviour or CNS development
same,total ganglioside and GM1 content,[5],marked reduction
same,inhibition of GSL biosynthesis relative to NB-DNJ,GSL biosynthesis,comparably to NB-DNJ
same,tolerability,[6]; mouse models of GSL storage diseases,very well tolerated
same,side effect activities relative to NB-DNJ,"[6]; mouse, in vivo",lacks certain side effect activities associated with NB-DNJ
same,HRP uptake,NPC1 cells,correction in HRP uptake
